Assay results published in ChEMBL document CHEMBL1201862, “PubChem BioAssay data set” (2004).
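In this assay, cells in 96-well plates receive the compound at five concentrations for 48 hours. Endpoints are linearly interpolated between the surrounding concentrations. The concentration for 50% growth inhibition is given as GI50.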 Activity calls are given as the source filed them. Rule as the data show it: active = GI50 up to about 1.1 µM and inactive = higher.

Legend:
Test in all cases: DTP human tumour cell line panel, 48 h
[1] = system: KM12
[2] = system: SR
[3] = system: ACHN
[4] = system: SK-MEL-28
[5] = system: DU-145
[6] = system: CCRF-CEM
[7] = system: SF-539
[8] = system: HOP-62
[9] = system: UO-31
[10] = system: K562
[11] = system: 786-0
[12] = system: UACC-257
[13] = system: HT-29
[14] = system: MCF7
[15] = system: OVCAR-3
[16] = system: HL-60
[17] = system: OVCAR-8
[18] = system: IGROV-1
[19] = system: MDA-N
[20] = system: NCI-H226
[21] = system: CAKI-1
[22] = system: NCI-H460
[23] = system: UACC-62
[24] = system: MDA-MB-435
[25] = system: SK-MEL-2
[26] = system: MDA-MB-231
[27] = system: SNB-19
[28] = system: SF-295
[29] = system: MOLT-4
[30] = system: COLO 205
[31] = system: Hs-578T
[32] = system: HCT-116
[33] = system: Malme-3M
[34] = system: NCI/ADR-RES
[35] = system: HOP-92
[36] = system: LOX IMVI
[37] = system: SN12C
[38] = system: PC-3
[39] = system: OVCAR-5
[40] = system: SNB-75
[41] = system: SW-620
[42] = system: SF-268
[43] = system: U-251
[44] = system: OVCAR-4
[45] = system: RPMI-8226
[46] = system: NCI-H23
[47] = system: A549
[48] = system: NCI-H522
[49] = system: EKVX
[50] = system: SK-OV-3
[51] = system: TK-10
[52] = system: HCC 2998
[53] = system: BT-549
[54] = system: HCT-15
[55] = system: M14

Compound: CC(=O)c1ccccc1NCC(=O)Nn1cnc2ccc(S(=O)(=O)Nc3ccccc3C(C)=O)cc2c1=O
- GI50 [1]: > 100 µM (inactive)
- GI50 [2]: > 100 µM (inactive)
- GI50 [3]: > 100 µM (inactive)
- GI50 [4]: > 100 µM (inactive)
- GI50 [5]: > 100 µM (inactive)
- GI50 [6]: > 100 µM (inactive)
- GI50 [7]: > 100 µM (inactive)
- GI50 [8]: > 100 µM (inactive)
- GI50 [9]: > 100 µM (inactive)
- GI50 [10]: > 100 µM (inactive)
- GI50 [11]: > 100 µM (inactive)
- GI50 [12]: > 100 µM (inactive)
- GI50 [13]: > 100 µM (inactive)
- GI50 [14]: > 100 µM (inactive)
- GI50 [15]: > 100 µM (inactive)
- GI50 [16]: > 100 µM (inactive)
- GI50 [17]: > 100 µM (inactive)
- GI50 [18]: 2.53 µM (inactive)
- GI50 [19]: > 100 µM (inactive)
- GI50 [20]: > 100 µM (inactive)
- GI50 [21]: > 100 µM (inactive)
- GI50 [22]: > 100 µM (inactive)
- GI50 [23]: > 100 µM (inactive)
- GI50 [24]: > 100 µM (inactive)
- GI50 [25]: > 100 µM (inactive)
- GI50 [26]: > 100 µM (inactive)
- GI50 [27]: > 100 µM (inactive)
- GI50 [28]: > 100 µM (inactive)
- GI50 [29]: > 100 µM (inactive)
- GI50 [30]: > 100 µM (inactive)
- GI50 [31]: 33.7 µM (inactive)
- GI50 [32]: > 100 µM (inactive)
- GI50 [33]: > 100 µM (inactive)
- GI50 [34]: > 100 µM (inactive)
- GI50 [35]: > 100 µM (inactive)
- GI50 [36]: > 100 µM (inactive)
- GI50 [37]: > 100 µM (inactive)
- GI50 [38]: > 100 µM (inactive)
- GI50 [39]: > 100 µM (inactive)
- GI50 [40]: > 100 µM (inactive)
- GI50 [41]: > 100 µM (inactive)
- GI50 [42]: > 100 µM (inactive)
- GI50 [43]: > 100 µM (inactive)
- GI50 [44]: > 100 µM (inactive)
- GI50 [45]: > 100 µM (inactive)
- GI50 [46]: > 100 µM (inactive)
- GI50 [47]: > 100 µM (inactive)
- GI50 [48]: > 100 µM (inactive)
- GI50 [49]: > 100 µM (inactive)
- GI50 [50]: > 100 µM (inactive)
- GI50 [51]: > 100 µM (inactive)
- GI50 [52]: > 100 µM (inactive)
- GI50 [53]: > 100 µM (inactive)
- GI50 [54]: > 100 µM
- GI50 [55]: > 100 µM (inactive)
